Experiment [1] concerns iPSC-derived CM. Briefly: qPCR of maturation markers with EC-conditioned medium / EC co-culture and ET or notch inhibition. The class given is cell-based, human. The following applies: 20 μM, EC and CM co-cultured, 7 days. On the procedure:
EC and iPSC-derived CMs were plated onto Matrigel Growth Factor Reduced (BD) coated dishes. Cells were fed with RPMI media supplemented with B27 (Life Technologies) and Endothelial Cell Growth Supplement (ECGS; BD Biosciences) every 2-3 days. EC-conditioned medium was collected after 1-3 days of EC growth. Endothelin inhibition was achieved by adding 10 nM PD145065 inhibitor (EMD Millipore) and notch inhibition with 20 μM DAPT (Sigma) at every media change. Cells were fed on days 1 and 4 and then harvested after 7 days.
RNA was extracted using TRIzol (Life Technologies) according to manufacturer's instructions. Three micrograms of RNA was used to generate cDNA using the iSCRIPT cDNA Synthesis Kit (Bio-Rad). The reaction mix included SYBR green chemistry and primers generated by IDT Technologies. The samples were analyzed using an iQ5 Real Time PCR Detection System (Bio-Rad). The control sample, compared to EC/iPSC-derived CM co-culture, consisted of a mix of equal parts EC and iPSC-derived CM RNA that were isolated separately. (n=3; *p<0.05 **p<0.01 ***p<0.001, Student's t-test)
(Real-time PCR tracks product formation cycle by cycle.)

In experiment [2] the test system is iPSC-derived CM. The following applies: endothelial cells/cardiomyocyte co-culture; cited from earlier work.
Experiment [3] relates to iPSC-derived cardiomyocytes. Briefly: Pharmacological treatment of iPSC-derived cardiomyocytes (beat rate, calcium transient). It counts as cell-based, human. As to the method:
The iPSC-derived cardiomyocytes have been engineered to express a calcium indicator (GCaMP6f reporter) that emits fluorescence in the presence of cytosolic calcium. Calcium transients were measured using an epifluorescent microscope with an inverted 10× objective (IX70 Olympus, Tokyo, Japan). Images were captured using a SPOT Idea 3.0 megapixel color fluorescent camera and SPOT acquisition software (SPOT Imaging Solutions, Sterling Heights, Mich.). The cells were placed in a 37° C. heated stage during imaging. The video was captured at 33 frames/second with 8×8 binning. ImageJ was used to process and extract the temporal fluorescence intensity of the acquired video data. Subsequent data were analyzed using MATLAB software (MathWorks, Torrance, Calif.). A customized algorithm determined the troughs and peaks of each calcium wave and measured the amplitude, max upslope, max downslope, time to 50% decay, and beat rate. Additional measurements included the effect of caffeine on the slope of amplitude change. Baseline and drug recordings were taken before and after 10 min incubation with the drug(s) on the 37° C. stage. All recordings were taken over 1 min. The order of the β-adrenergic drug treatments was baseline, 1 μM isoproterenol (Sigma #16504), and 1 μM Isoproterenol+10 μM Propranolol (Sigma # P0884). The effect of caffeine (Tocris #2793) on calcium signaling was assessed at a final concentration of 20 mM. The video recordings were acquired before and during the addition of caffeine.

Consider `C[C@H](NC(=O)Cc1cc(F)cc(F)c1)C(=O)N[C@H](C(=O)OC(C)(C)C)c1ccccc1` [DAPT], for which the “Maturation markers Junctin, SERCA2a, CaV1.2” value in experiment [1] is “decrease”. Besides, in experiment [2], the cTNT expression result is listed as “decrease”.

Turning to `Cn1c(=O)c2c(ncn2C)n(C)c1=O` [caffeine], in experiment [3] (20 mM, 3D culture vs 2D), the Calcium release result is listed as “more rapid release of calcium”, the “Time to maximum calcium concentration” value is recorded as “quicker” and the “Upslope (velocity of calcium release)” value is “steeper”.

In the case of `CC(C)NCC(O)c1ccc(O)c(O)c1` (centres unmarked) [isoproterenol], the Beat rate entry is “increased their beat rate” in experiment [3] (1 μM, 10 min incubation) and “increased beat rate” in experiment [3] (cells cultured in 3D compared to cells in 2D culture).

`CC(C)NCC(O)COc1cccc2ccccc12` (centres unmarked) [propranolol]: the Beat rate entry in experiment [3] (10 μM added after 1 μM isoproterenol) is recorded as “decreased to baseline levels”.

Values taken from patent US10837001B2, “Cardiomyocyte maturation platform” (The Regents of the University of California, priority 2016, dated 2020).
